What was measured:
Dr-FtsZ [1] = molecular target: T1, Dr-FtsZ (Deinococcus radiodurans, UniProt Q9RWN5); experiment: stimulation of GTPase activity; [α[…]]-GTP TLC; assay type: biochemical; settings: 0.5 mM ATP, 0.5 mM GTP, 2 mM MgCl2, PIPES pH 7.5, 37 °C; activator, site not known; ATP not hydrolysed
T1 construct: 42 kDa
T1 sequence (Q9RWN5 1-371): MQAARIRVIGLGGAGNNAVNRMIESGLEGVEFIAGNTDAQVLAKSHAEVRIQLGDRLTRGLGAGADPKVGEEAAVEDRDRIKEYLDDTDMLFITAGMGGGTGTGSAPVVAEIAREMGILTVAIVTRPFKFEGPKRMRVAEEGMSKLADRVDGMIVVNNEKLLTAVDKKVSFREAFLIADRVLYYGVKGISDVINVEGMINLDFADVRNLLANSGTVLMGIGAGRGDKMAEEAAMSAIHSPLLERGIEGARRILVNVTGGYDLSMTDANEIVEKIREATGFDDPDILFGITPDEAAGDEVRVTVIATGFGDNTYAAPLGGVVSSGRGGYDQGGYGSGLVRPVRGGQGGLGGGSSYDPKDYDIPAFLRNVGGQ

Dr-FtsA = molecular target: T2, Dr-FtsA (Deinococcus radiodurans, UniProt Q9RWN6); experiment: circular dichroism; transmission electron microscopy of polymers; assay type: binding; settings: 10 µM ATP (CD) or 1 mM ATP (TEM), 37 °C; 25 mM PIPES pH 7.5, 50 mM KCl, with or without 5 mM MgCl2 (TEM); ATP not hydrolysed
T2 construct: full-length from pBADDFtsA (pBAD/HisA), expressed in E. coli TOP10; His tag removed; 54 kDa
T2 sequence (Q9RWN6 1-517): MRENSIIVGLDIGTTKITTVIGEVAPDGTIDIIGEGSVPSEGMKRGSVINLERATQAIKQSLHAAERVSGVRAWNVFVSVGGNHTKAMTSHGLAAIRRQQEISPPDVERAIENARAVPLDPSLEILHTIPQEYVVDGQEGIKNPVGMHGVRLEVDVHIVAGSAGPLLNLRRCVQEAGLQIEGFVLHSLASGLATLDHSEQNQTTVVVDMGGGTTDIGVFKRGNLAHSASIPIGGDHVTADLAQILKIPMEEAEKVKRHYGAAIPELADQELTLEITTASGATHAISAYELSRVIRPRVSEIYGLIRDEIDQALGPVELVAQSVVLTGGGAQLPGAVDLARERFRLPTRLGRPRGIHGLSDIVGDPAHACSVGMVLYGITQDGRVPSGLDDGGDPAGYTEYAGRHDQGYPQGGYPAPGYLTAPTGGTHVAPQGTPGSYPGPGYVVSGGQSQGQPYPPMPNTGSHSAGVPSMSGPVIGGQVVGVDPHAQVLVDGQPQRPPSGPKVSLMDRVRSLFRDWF

Dr-FtsZ [2] = molecular target: T1, Dr-FtsZ; experiment: malachite green Pi release; [α[…]]-GTP TLC; assay type: biochemical; settings: PIPES pH 7.5, 50 mM KCl, 2 mM MgCl2, 1 mM GTP (0.5 mM in TLC assay), 37 °C

SMILES	stimulation of GTPase activity; [α32P]-GTP TLC (Dr-FtsZ [1])	circular dichroism; transmission electron microscopy of polymers (Dr-FtsA)	malachite green Pi release; [α32P]-GTP TLC (Dr-FtsZ [2])
Nc1ncnc2c1ncn2[C@@H]1O[C@H](COP(=O)(O)OP(=O)(O)OP(=O)(O)O)[C@@H](O)[C@H]1O [ATP]	the GTPase activity of Dr-FtsZ was stimulated in the presence of ATP (Fig. 2C)	had the correct secondary structure assignment, and interacted with ATP in solution	
Nc1nc2c(ncn2[C@@H]2O[C@H](COP(=O)(O)OP(=O)(O)OP(=O)(O)O)[C@@H](O)[C@H]2O)c(=O)[nH]1 [GTP]			GTPase activity of Dr-FtsZ was stimulated in the presence of Dr-FtsA

From PMC4281207, “Dr-FtsA, an Actin Homologue in Deinococcus radiodurans Differentially Affects Dr-FtsZ and Ec-FtsZ Functions In Vitro” (PLoS ONE, 2014)
